What was measured:
[1] = test system: Gne−/−hGNED176V-Tg mice; assay: Fiber diameter analysis of gastrocnemius muscles; type: in vivo; settings: for Mean fiber diameter: gastrocnemius
Method: N-Acetylcysteine (NAC) Treatment Protocols: […] were randomly divided into high dose NAC (n=13), low dose NAC (n=13), or untreated control (n=17) groups. […] There was no difference in water consumption between mice receiving NAC supplemented water or regular drinking water. […] Three littermates groups (high dose NAC; n=7, low dose NAC; n=7, or untreated control; n=6) were treated in the same way. Fiber diameter analysis: Muscle tissues were processed according to previous protocols (8-10). For the morphometric analysis, we stained frozen transverse sections (6 μm) of gastrocnemius muscles with rabbit polyclonal antibody to caveolin 3 (BD Transduction Laboratories), followed by Alexa fluor-conjugated goat IgG antibody to rabbit (Invitrogen). Five randomly selected images per mouse were used to measure fiber diameters using ImageJ software (NIH). Minimal inner diameters of 1,000 myofibers from each mouse were measured.

[2] = test system: GNE Myopathy myotubes; assay: Intracellular ROS (DCF fluorescence) in cultured myotubes; type: cell-based, mice; settings: GNE Myopathy myotubes treated with 5 mM for 72 h; mean±SEM; untreated 1113±30, littermate controls 115±15
Method: (§1) Cell cultures and myotubes analysis: Myocytes from Gne^−/−hGNED176V-Tg mice and littermate controls were proliferated in DMEM containing 20% fetal bovine serum and 1% chicken embryo extracts in a 5% CO2 and induced to differentiation in a serum free medium, OPTIPRO™ SFM (Gibco), to make the cells hyposialylated. Where indicated, myotubes were treated with 5 mM NeuAc (Japan Food and Liquor Alliance) or 5 mM NAC (Sigma) for 72 h.
For the analysis of intracellular ROS, a popular fluorescence-based probe, 2′,7′-dichlorodihydrofluorescein diacetate (DCFH-DA) (Wang et al., Free Radical Biology and Medicine. 1999; 27:612-616; Halliwell and Whiteman, Br J Pharmacol. 2004; 142:231-255) was used. Cells were loaded with 5 μM DCFH-DA (Invitrogen) in PBS for an hour and recovered with phenol red-free DMEM (Gibco) for 30 min at 37° C. in a 5% CO2 incubator. Then the cells were placed in a CYTOFLUOR® Series 4000 multi-well fluorescence plate reader (PerSeptive Biosystems) with temperature maintained at 37° C. The excitation filter was set at 485 nm and the emission filter was set at 530 nm. The fluorescence from each well was captured and recorded.

[3] = test system: GNE Myopathy myotubes; assay: ROS generation under pro-oxidants (H2O2 or menadione), ΔDCF fluorescence; type: cell-based, mice
Method: as §1
To evaluate the ROS generation under pro-oxidants, myotubes cultured in each condition were loaded with 5 μM DCFH-DA for 1 h and recovered in the different concentrations of H2O2 or menadione-containing medium. After 30 min incubation in dark at 37° C., the microplate containing cells with pro-oxidants were placed in a plate reader and fluorescence was captured at every 5 min until it reached a plateau. Maximum fluorescence of each well was used for analysis.

[4] = test system: Gne−/−hGNED176V-Tg mice; assay: Motor performance analysis (treadmill performance and endurance tests); type: in vivo; settings: vs untreated
Method: N-Acetylcysteine (NAC) Treatment Protocols: […] were randomly divided into high dose NAC (n=13), low dose NAC (n=13), or untreated control (n=17) groups. […] There was no difference in water consumption between mice receiving NAC supplemented water or regular drinking water. […] Three littermates groups (high dose NAC; n=7, low dose NAC; n=7, or untreated control; n=6) were treated in the same way. Motor performance analysis: The motor performance was evaluated using treadmill exercise as previously reported (9, 10) with minor modification. Briefly, after 7 days of acclimation on the treadmill, two exercise tests were performed on separate days. […] The time of exhaustion was used to calculate the total distance of the mice ran during the exercise. The endurance exercise consisted of a 60-min treadmill run at 20 m/min with a […] incline, during which the number of beam breaks or rests were recorded. Both tests were done twice with 2 days rest in between.

[5] = test system: GNE Myopathy muscle; assay: Gene expression analysis of muscle (quantitative RT-PCR and microarray); type: in vivo, mice
Method: Quantitative RT-PCR and microarray analysis: […] Microarray experiments were carried out using a […] Mouse Whole Genome Bioarray (Applied Microarrays Inc.) at Filgen Inc. The arrays were scanned using a […] Array Scanner (Molecular Devices Inc.). The data were analyzed by using Microarray Data Analysis Tool version 3.2 (Filgen Inc.). For quantitative PCR, TAQMAN® probes were used in combination with the TAQMAN® Gene Expression Master Mix (Applied Biosystems) in a total reaction of 20 μl. STEPONEPLUSTM Real-Time PCR System (Applied Biosystems) was used to quantify mRNA expression. mRNA relative expression was normalized to internal control (GAPDH) and determined as fold change in the average expression value of littermate muscles. The TAQMAN® probes used were as follows: F-box protein 32 (Fbxo32), Mm00499523_m1; tripartite motif-containing 63 (Trim63), Mm01185221_m1; Sulfiredoxin1 homolog (Srxn1), Mm00769566_m1; metallothionein 1 (Mt1), Mm00496660_g1; metallothionein 2 (Mt2), Mm00809556_s1; metallothionein 3 (Mt3), Mm00496661_g1; LC3b, Mm00782868_sH. N-Acetylcysteine (NAC) Treatment Protocols: […] were randomly divided into high dose NAC (n=13), low dose NAC (n=13), or untreated control (n=17) groups. […] There was no difference in water consumption between mice receiving NAC supplemented water or regular drinking water. […] Three littermates groups (high dose NAC; n=7, low dose NAC; n=7, or untreated control; n=6) were treated in the same way.

[6] = test system: GNE Myopathy myotubes; assay: Cell viability assay under pro-oxidants (propidium iodide/Hoechst co-staining); type: cell-based, mice; settings: treated GNE Myopathy myotubes under menadione exposure
Method: as §1
For the cell viability assay, myotubes were exposed to H2O2 for 24 h and to menadione for 6 h before staining. Nuclear staining with Hoechst 33342 (Thermo Scientific) and propidium iodide (PI) (Dojindo) was used for morphological assessment of apoptosis by fluorescence microscopy (Lee and Shacter, Journal of Biological Chemistry. 1999; 274:19792-19798). Minimum 200 nuclei were counted and cell viability was calculated by the exclusion of PI-stained nuclei from Hoechst 33342-stained nuclei.

[7] = test system: β-amyloid; assay: β-amyloid expression by ELISA in muscle homogenates; type: in vivo, mice; settings: after NAC treatment
[8] = HD and LD treated GNE Myopathy muscles

CC(=O)N[C@@H](CS)C(=O)O [NAC, N-acetylcysteine]
Mean fiber diameter ([1]; HD group 1.5 g/kg per day, p<0.05 vs untreated 31.7±0.8): 35.2±1.2 μm
Mean fiber diameter ([1]; LD group 0.15 g/kg per day, p<0.01 vs untreated 31.7±0.8): 35.7±0.8 μm
Average fiber diameters in healthy control mice ([1]; some healthy control (littermate) mice with NAC supplement): increased
Mean DCF fluorescence (intracellular ROS generation) [2]: 191±10 AFU
Protective effect in the high oxidative stress condition ([3]; GNE Myopathy myotubes, H2O2 or menadione, more evident for menadione): worked effectively
ΔDCF fluorescence compared to littermate myotubes ([3]; treated GNE Myopathy myotubes under menadione exposure): comparable
Treadmill performance and endurance tests ([4]; high dose (HD) 1.5 g/kg per day in drinking water): significantly improved
Motor function (treadmill) ([4]; low dose (LD) 0.15 g/kg per day in drinking water): better motor function
Upregulation of atrogenes (atrogin-1 and MuRF1) [5, 8]: recovered
Upregulation of oxidative stress responsive genes (MT1 and MT2) [5, 8]: recovered
LC3b expression (marker of autophagy) ([5]; treated GNE Myopathy muscles, RT-PCR and microarray): recovered as well
Cell viability compared to littermate myotubes [6]: even better
β-amyloid expression by ELISA in muscle homogenates [7]: decreased

From US10493087B2, “Sialylation-increasing therapies for diseases associated with oxidative stress” (THE UNITED STATES OF AMERICA, AS REPRESENTED BY THE …, priority 2015, dated 2019)
